Experimental data reported in patent publication US20150297482A1, “MALODOR COUNTERACTING COMPOSITIONS AND METHOD FOR THEIR USE TO COUNTERACT SWEAT MALODOR” (FIRMENICH SA, priority 2009, published 2015).

Tested on: Staphylococcus haemolyticus CNCM I-4170
Test: Protocol A: in-vitro malodor inhibition (free thiol groups from Cys-Gly precursor, DTNB absorbance at 412 nm)
Format: cell-based
From the text: Further details of such a screening and % inhibition measurement and definition are described further on in this application. The precursor used, which may also be in the form of a human sweat sample, typically generates malodorant sulfur compounds when acted upon by the Staphylococcus haemolyticus cells, or by a β-lyase present in such cells. The malodor inhibition coefficient, as defined herein, reflects the % of reduction in free SH groups generated in the above-mentioned medium by the enzymatic activity of the bacterial cells when in presence of the MOC ingredient or MOC composition in question, as compared to the same measurement in their absence. […] Alternatively, the bacterial cells can be replaced by a β-lyase present in said cells. […] Detection of enzymatic activity inhibition is measured via the sulfur groups, namely thiol groups, freed from the precursor bacterial transformation, by comparison with the reference experiment in the absence of the respective MOC ingredient, said sulfur groups being detected by interaction with DTNB, a known chemical detector system for thiols. The reaction can be monitored by absorbance reading at 412 nm. The procedure can be performed indifferently with either a purified or semi-purified enzyme or intact bacterial cells, as in the case described here. Malodor inhibition coefficient is measured as a function of the percentage of free thiol groups in the medium, over time, by an absorbance method, and reflects the reduction in malodor obtained in the presence of the MOC ingredients and compositions. […] At the end of the growth phase, the bacterial cells were harvested by centrifugation at 5000 rpm for 15 min. The cell pellet was then washed with 0.1 volumes of sterile potassium phosphate buffer 0.1 M, pH 7.5. […] The precursor was used at 0.17 mM final concentration. • Detection reagent DTNB • DTNB (5,5′-Dithio-bis-(2-nitrobenzoic acid; […]

**Q.** For Terpenyl acetate, which “Ingredient Malodor Inhibition Value (%)” value (0.0012 w/v % in medium) is on record?
**A.** 0.00%

**Q.** What about the “Ingredient Malodor Inhibition Value (%)” value (0.0025 w/v % in medium) of the same substance?
**A.** 0.00%

**Q.** What about the “Ingredient Malodor Inhibition Value (%)” value (0.006 w/v % in medium) of the same substance?
**A.** 0.00%

**Q.** What about the “Ingredient Malodor Inhibition Value (%)” value (0.0125 w/v % in medium) of the same substance?
**A.** 0.00%

**Q.** And the “Ingredient Malodor Inhibition Value (%)” value (0.025 w/v % in medium)?
**A.** 0.00%

**Q.** And the “Ingredient Malodor Inhibition Value (%)” value (0.05 w/v % in medium)?
**A.** 6.81%

**Q.** What about the “Ingredient Malodor Inhibition Value (%)” value (0.1 w/v % in medium) of the same substance?
**A.** 00.00%

**Q.** Vetyverone was tested. Which “Ingredient Malodor Inhibition Value (%)” value (Table 2, 0.0012 w/v % in medium) did it give?
**A.** 10.9%

**Q.** What about the “Ingredient Malodor Inhibition Value (%)” value (Table 2, 0.0025 w/v % in medium) of the same substance?
**A.** 10.40%

**Q.** And the “Ingredient Malodor Inhibition Value (%)” value (Table 2, 0.005 w/v % in medium)?
**A.** 44.6%

**Q.** And the “Ingredient Malodor Inhibition Value (%)” value (Table 2, 0.025 w/v % in medium)?
**A.** 47.1%

**Q.** And the “Ingredient Malodor Inhibition Value (%)” value (Table 2, 0.05 w/v % in medium)?
**A.** 54.2%
